Read-outs that look alike come from different tables or passages of the source.

Test [1] addresses T1, His-GST-TVMV-hRIPK1(1-324) (Homo sapiens, UniProt Q13546).
T1 construct: The coding region of human RIPK1(1-324) flanked by NdeI site at 5′ end; made in house; host or cells: Spodoptera frugiperda (Sf9) insect cells, baculovirus
T1 sequence (Q13546 1-324): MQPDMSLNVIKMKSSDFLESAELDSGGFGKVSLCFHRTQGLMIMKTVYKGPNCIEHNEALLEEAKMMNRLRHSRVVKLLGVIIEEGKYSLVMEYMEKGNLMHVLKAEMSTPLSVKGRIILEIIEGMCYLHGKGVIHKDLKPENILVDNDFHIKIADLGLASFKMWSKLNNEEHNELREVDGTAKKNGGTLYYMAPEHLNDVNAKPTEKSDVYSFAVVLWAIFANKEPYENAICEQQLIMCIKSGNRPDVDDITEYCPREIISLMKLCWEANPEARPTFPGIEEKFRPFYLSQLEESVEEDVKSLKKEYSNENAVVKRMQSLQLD
The test is described as follows: RIPK1 HTRF Binding Assay.

The test system of test [2] is MLKL phosphorylation in HT29-L23 human colorectal adenocarcinoma cells. The experiment in a line: MLKL Phosphorylation High-Content Assay. As to conditions: Homo sapiens. Type of test: cell-based. The essentials: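 IC50 and Ymax obtained by 4-parameter logistic fitting of MLKL phosphorylation, measured as mean circ-ring average intensity ratio from high-content images. Staining used an anti-phospho-S358 MLKL antibody overnight at 4° C., following six-hour cell incubation at 37° C.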

Where [3] appears, read: x marks IC50 class 20-200 nM, read-out: RIPK1 HTRF binding 20-200 nM.
Where [4] appears, read: x marks IC50 class >200 nM, read-out: pMLKL cell activity >200 nM.
[5] abbreviates: x marks IC50 class <20 nM, read-out: RIPK1 HTRF binding <20 nM.
[6] abbreviates: x marks IC50 class <20 nM, read-out: pMLKL cell activity <20 nM.
Setting [7] is: x marks IC50 class 20-200 nM, read-out: pMLKL cell activity 20-200 nM.

For the compound `COc1ccc(F)c(CNC(=O)c2cc(-c3ccn4nc(N)nc4c3)c(C)nc2OC)c1` [Example 337, 5-(2-amino-[1,2,4]triazolo[1,5-a]pyridin-7-yl)-N-(2-fluoro-5-methoxybenzyl)-2-methoxy-6-methylnicotinamide], the IC50 in test [1] (setting [3]) is 20 to 200 nM; in test [2] (setting [4]) it was over 200 nM.

For `COc1nc(C)c(-c2ccn3nc(N)nc3c2)cc1C(=O)NCc1ccccc1OCC1CCCC1` [Example 207, 5-{2-amino-[1,2,4]triazolo[1,5-a]pyridin-7-yl}-N-{[2-(cyclopentylmethoxy)phenyl]methyl}-2-methoxy-6-methylpyridine-3-carboxamide], the IC50 in test [1] (setting [5]) and in test [2] (setting [6]) was under 20 nM each time.

With `COc1nc(C)c(-c2ccn3nc(N)nc3c2)cc1C(=O)NCc1ccccc1CN1CCCCC1` [Example 358, 5-(2-amino-[1,2,4]triazolo[1,5-a]pyridin-7-yl)-2-methoxy-6-methyl-N-(2-(piperidin-1-ylmethyl)benzyl)nicotinamide], the IC50 in test [1] (setting [3]) was 20 to 200 nM; in test [2] (setting [4]), over 200 nM.

`COc1nc(C)c(-c2ccn3nc(N)nc3c2)cc1C(=O)NCc1cc(F)cc(F)c1OCC(C)C` [Example 333, 5-(2-amino-[1,2,4]triazolo[1,5-a]pyridin-7-yl)-N-(3,5-difluoro-2-isobutoxybenzyl)-2-methoxy-6-methylnicotinamide]: the IC50 was under 20 nM in test [1] (setting [5]) and 20 to 200 nM in test [2] (setting [7]).

Consider `CCOc1ncc(-c2ccn3nc(N)nc3c2)cc1C(=O)NCc1cc(F)cc(F)c1OCC1CCCC1` [Example 14, 5-{2-Amino-[1,2,4]triazolo[1,5-a]pyridin-7-yl}-N-{[2-(cyclopentylmethoxy)-3,5-difluorophenyl]methyl}-2-ethoxypyridine-3-carboxamide], for which the IC50 in test [1] (setting [5]) was under 20 nM; in test [2] (setting [7]), 20 to 200 nM.

Consider `COc1ncc(-c2ccn3nc(N)nc3c2)cc1C(=O)NCc1ccccc1OC(C)C` [Example 144, 5-{2-amino-[1,2,4]triazolo[1,5-a]pyridin-7-yl}-2-methoxy-N-{[2-(propan-2-yloxy)phenyl]methyl}pyridine-3-carboxamide], for which the values for the IC50 in test [1] (setting [5]) and in test [2] (setting [7]) were under 20 nM and 20 to 200 nM, respectively.

For `[2H]C([2H])([2H])Oc1ncc(-c2ccn3nc(N)nc3c2)cc1C(=O)NC([2H])([2H])c1cc(C(F)(F)F)ccc1F` [Example 284, 5-(2-amino-[1,2,4]triazolo[1,5-a]pyridin-7-yl)-N-((2-fluoro-5-(trifluoromethyl)phenyl)methyl-d2)-2-(methoxy-d3)nicotinamide], the IC50 in test [1] (setting [5]) is under 20 nM; in test [2] (setting [7]) it was 20 to 200 nM.

With `COc1ncc(-c2ccn3nc(N)nc3c2)cc1C(=O)NCCC(O)c1ccc(F)cc1` (stereo not drawn) [Example 78, 5-{2-Amino-[1,2,4]triazolo[1,5-a]pyridin-7-yl}-N-[3-(4-fluorophenyl)-3-hydroxypropyl]-2-methoxypyridine-3-carboxamide], the IC50 in test [1] (setting [3]) and in test [2] (setting [7]) was 20 to 200 nM in each case.

For the compound `COc1nc(C)c(-c2ccn3nc(N)nc3c2)cc1C(=O)NCc1ccccc1OCC1CC(=O)C1` [Example 3, 5-{2-Amino-[1,2,4]triazolo[1,5-a]pyridin-7-yl}-2-methoxy-6-methyl-N-({2-[(3-oxocyclobutyl)methoxy]phenyl}methyl)pyridine-3-carboxamide], the IC50 in test [1] (setting [3]) and in test [2] (setting [7]) was 20 to 200 nM throughout.

In the case of `Cc1nc(C)c(-c2ccn3nc(N)nc3c2)cc1C(=O)NCc1cc(F)ccc1OCC(F)(F)F` [Example 292, 5-(2-amino-[1,2,4]triazolo[1,5-a]pyridin-7-yl)-N-(5-fluoro-2-(2,2,2-trifluoroethoxy)benzyl)-2,6-dimethylnicotinamide], the IC50 in test [1] (setting [3]) and in test [2] (setting [7]) was 20 to 200 nM throughout.

In the case of `COc1ncc(-c2ccn3nc(N)nc3c2)cc1C(=O)NCc1ncccc1OCC1CC1` [Example 132, 5-{2-amino-[1,2,4]triazolo[1,5-a]pyridin-7-yl}-N-{[3-(cyclopropylmethoxy)pyridin-2-yl]methyl}-2-methoxypyridine-3-carboxamide], the IC50 in test [1] (setting [3]) and in test [2] (setting [7]) was 20 to 200 nM throughout.

For the compound `Cc1nc(C)c(-c2ccn3nc(N)nc3c2)cc1C(=O)NCc1cc(F)cc(F)c1OCC1CCCC1` [Example 188, 5-{2-amino-[1,2,4]triazolo[1,5-a]pyridin-7-yl}-N-{[2-(cyclopentylmethoxy)-3,5-difluorophenyl]methyl}-2,6-dimethylpyridine-3-carboxamide], the IC50 in test [1] (setting [5]) and in test [2] (setting [6]) was under 20 nM each time.

On to `COc1nc(C)c(-c2ccn3nc(N)nc3c2)cc1C(=O)NCc1cc(F)cc(F)c1O[C@@H]1CCOC1` [Example 354, (R)-5-(2-amino-[1,2,4]triazolo[1,5-a]pyridin-7-yl)-N-(3,5-difluoro-2-((tetrahydrofuran-3-yl)oxy)benzyl)-2-methoxy-6-methylnicotinamide], for which the results for the IC50 in test [1] (setting [5]) and in test [2] (setting [7]) were under 20 nM and 20 to 200 nM, respectively.

`COc1nc(C)c(-c2ccn3nc(N)nc3c2)cc1C(=O)NCc1cccc(C(F)(F)F)c1` [Example 199, 5-{2-amino-[1,2,4]triazolo[1,5-a]pyridin-7-yl}-2-methoxy-6-methyl-N-{[3-(trifluoromethyl)phenyl]methyl}pyridine-3-carboxamide]: the values for the IC50 in test [1] (setting [3]) and in test [2] (setting [4]) were 20 to 200 nM and over 200 nM, respectively.

Take `Nc1nc2cc(-c3cc(C(=O)NCc4ccccc4Sc4ccccc4CO)c4cc(F)ccc4n3)ccn2n1` [Example 60, 2-{2-Amino-[1,2,4]triazolo[1,5-a]pyridin-7-yl}-6-fluoro-N-[(2-{[2-(hydroxymethyl)phenyl]sulfanyl}phenyl)methyl]quinoline-4-carboxamide]: the IC50 was 20 to 200 nM in test [1] (setting [3]) and over 200 nM in test [2] (setting [4]).

`Cc1cnc(-c2ccn3nc(N)nc3c2)nc1C(=O)NCCC(C)c1ccccc1` (stereo not drawn) [Example 411, 2-(2-amino-[1,2,4]triazolo[1,5-a]pyridin-7-yl)-5-methyl-N-(3-phenylbutyl)pyrimidine-4-carboxamide]: the IC50 in test [1] (setting [3]) is 20 to 200 nM; in test [2] (setting [4]) it was over 200 nM.

For the compound `[2H]C([2H])([2H])[C@@H](NC(=O)c1cc(-c2ccn3nc(N)nc3c2)cnc1C)c1cccc(OC(F)(F)F)c1` [Example 311, (R)-5-(2-amino-[1,2,4]triazolo[1,5-a]pyridin-7-yl)-2-methyl-N-(1-(3-(trifluoromethoxy)phenyl)ethyl-2,2,2-H3)nicotinamide], the IC50 was 20 to 200 nM in test [1] (setting [3]) and over 200 nM in test [2] (setting [4]).

Turning to `[2H]C([2H])([2H])Oc1ncc(-c2ccn3nc(N)nc3c2)cc1C(=O)NCc1cc(F)cc(F)c1OCC1CC1` [Example 94, 5-{2-amino-[1,2,4]triazolo[1,5-a]pyridin-7-yl}-N-{[2-(cyclopropylmethoxy)-3,5-difluorophenyl]methyl}-2-(deutero)methoxypyridine-3-carboxamide], the IC50 in test [1] (setting [5]) and in test [2] (setting [6]) was under 20 nM in each case.

As to `COc1ncc(-c2ccn3nc(N)nc3c2)cc1C(=O)NCc1ccccc1S(=O)(=O)C(C)C` [Example 104, 5-{2-amino-[1,2,4]triazolo[1,5-a]pyridin-7-yl}-2-methoxy-N-{[2-(propane-2-sulfonyl)phenyl]methyl}pyridine-3-carboxamide], the IC50 in test [1] (setting [5]) is under 20 nM; in test [2] (setting [4]), over 200 nM.

Turning to `COc1nc(C)c(-c2ccn3nc(N)nc3c2)cc1C(=O)NCc1ccccc1OC1CCOCC1` [Example 195, 5-{2-amino-[1,2,4]triazolo[1,5-a]pyridin-7-yl}-2-methoxy-6-methyl-N-{[2-(oxan-4-yloxy)phenyl]methyl}pyridine-3-carboxamide], the IC50 in test [1] (setting [5]) and in test [2] (setting [6]) was under 20 nM in each case.

In the case of `Cc1ncc(C(=O)NCc2cc(F)cc(F)c2OCC2CCCC2)cc1-c1ccn2nc(N)nc2c1` [Example 259, 5-{2-amino-[1,2,4]triazolo[1,5-a]pyridin-7-yl}-N-{[2-(cylcopentylmethoxy)-3,5-difluorophenyl]methyl}-6-methylpyridine-3-carboxamide], the IC50 in test [1] (setting [5]) is under 20 nM; in test [2] (setting [7]) it was 20 to 200 nM.

With `COc1ncc(-c2ccn3nc(N)nc3c2)cc1C(=O)NCc1ccccc1OC1CCC(C)C1` (stereo not drawn) [Example 32, 5-{2-Amino-[1,2,4]triazolo[1,5-a]pyridin-7-yl}-2-methoxy-N-({2-[(3-methylcyclopentyl)oxy]phenyl}methyl)pyridine-3-carboxamide], the IC50 in test [1] (setting [5]) and in test [2] (setting [6]) was under 20 nM throughout.

For the compound `[2H]C([2H])(NC(=O)c1cc(-c2ccn3nc(N)nc3c2)cnc1OC)c1ccccc1OC(F)(F)F` [Example 2, 5-{2-Amino-[1,2,4]triazolo[1,5-a]pyridin-7-yl}-2-methoxy-N-{[2-(trifluoromethoxy)phenyl](^2H)methyl}pyridine-3-carboxamide], the IC50 in test [1] (setting [3]) and in test [2] (setting [7]) was 20 to 200 nM each time.

`COc1ncc(-c2ccn3nc(N)nc3c2)cc1C(=O)Nc1cnn(C(C)c2ccc(F)cc2)c1` (single isomer, unassigned) [Example 76-2]: the IC50 in test [1] (setting [5]) was under 20 nM; in test [2] (setting [7]), 20 to 200 nM.
